What all share (type): binding
Holding throughout (settings): 10 μM TEAD protein, 50 μM test compound

Experiment [1] concerns recombinant TEAD1 protein (194-411, Uniprot ID: P28347). Description: Thermal shift assay (protein melting point curve), TEAD1. Also on record: key to the marks not given beside the values. The procedure:
(§1) The ability of the compounds to increase the melting point of purified recombinant TEAD1/2/3/4 proteins is tested using a thermal shift assay. The strength of the compound's binding to the protein and the selectivity of the compound's binding to the four TEAD subtypes are evaluated by calculating the melting point shift ΔTm−° C. […] Based on the Δ Tm value, the ability of the compound to bind to the TEAD protein is divided into four levels: ++++, +++, ++, +.
(§2) Test method of protein melting point curve: 10 μL of the protein melting point curve experimental system (10 μM TEAD protein, 50 μM test compound, SYPRO® orange (55692, sigma)) is prepared in a 384-well fluorescence quantitative PCR plate according to the following system, and reacted at 4° C. in the dark for 20 minutes. On-machine reaction: ABI QuantStudio Dx fluorescence quantitative PCR instrument; program: from 25° C. to 80° C., increasing the temperature at a rate of 0.05° C./s, and reading the fluorescence channel signal of the corresponding wavelength of SYPRO® orange every second.

For experiment [2], the target named is recombinant TEAD2 protein (218-447, Uniprot ID: Q15562) (Homo sapiens (Human), UniProt Q15562). Description: Thermal shift assay (protein melting point curve), TEAD2. The protocol: as §1, §2
recombinant TEAD2 protein (218-447, Uniprot ID: Q15562), sequence (Q15562 218-447): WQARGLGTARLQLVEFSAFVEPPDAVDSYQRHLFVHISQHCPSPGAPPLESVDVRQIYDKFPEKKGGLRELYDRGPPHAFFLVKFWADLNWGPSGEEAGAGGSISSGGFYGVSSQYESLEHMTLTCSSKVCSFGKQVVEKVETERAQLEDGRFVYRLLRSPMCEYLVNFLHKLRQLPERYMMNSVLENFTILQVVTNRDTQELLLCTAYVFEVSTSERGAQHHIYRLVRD
The target of experiment [3] is recombinant TEAD3 protein (218-435, Uniprot ID: Q99594) (Homo sapiens (Human), UniProt Q99594). Description: Thermal shift assay (protein melting point curve), TEAD3. The protocol: as §1, §2
recombinant TEAD3 protein (218-435, Uniprot ID: Q99594), sequence (Q99594 218-435): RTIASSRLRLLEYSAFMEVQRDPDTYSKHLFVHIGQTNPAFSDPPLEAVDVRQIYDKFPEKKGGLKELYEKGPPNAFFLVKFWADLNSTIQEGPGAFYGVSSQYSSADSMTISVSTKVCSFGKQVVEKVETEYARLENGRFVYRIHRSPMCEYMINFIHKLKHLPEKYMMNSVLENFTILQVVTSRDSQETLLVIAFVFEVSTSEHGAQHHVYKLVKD
Experiment [4] concerns the target recombinant TEAD4 protein (217-434, Uniprot ID: Q15561) (Homo sapiens (Human), UniProt Q15561). Description: Thermal shift assay (protein melting point curve), TEAD4. The procedure: as §1, §2

recombinant TEAD4 protein (217-434, Uniprot ID: Q15561), sequence (Q15561 217-434): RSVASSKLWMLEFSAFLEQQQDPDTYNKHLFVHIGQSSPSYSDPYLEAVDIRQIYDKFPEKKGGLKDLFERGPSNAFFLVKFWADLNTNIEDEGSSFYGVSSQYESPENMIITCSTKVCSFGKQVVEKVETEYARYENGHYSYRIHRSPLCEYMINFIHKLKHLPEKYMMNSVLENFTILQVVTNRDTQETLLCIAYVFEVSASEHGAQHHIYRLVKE

As to `CP(C)(=O)c1ccc(NC2CCc3cc(C(F)(F)F)ccc32)c(-c2ncccn2)c1` (stereo not drawn) [Compound 42], the “Δ T m (TEAD1)” value in experiment [1] is reported as “++”. In experiment [2], the “Δ T m (TEAD2)” value is “++”. The “Δ T m (TEAD3)” value in experiment [3] is “+”. Moreover, in experiment [4], the “Δ T m (TEAD4)” value was “+”.
On to `CP(C)(=O)c1ccc(NCc2ccc(C(F)(F)F)cc2)c(-n2cc(C3CCOCC3)cn2)c1` [Compound 58], for which the “Δ T m (TEAD1)” value in experiment [1] is recorded as “++”. The “Δ T m (TEAD2)” value in experiment [2] is on record as “+”. In experiment [3], the “Δ T m (TEAD3)” value is listed as “+”. Further, in experiment [4], the “Δ T m (TEAD4)” value is “+”.
For the compound `Cc1nnc(-c2cc(P(C)(C)=O)ccc2NCc2ccc(C(F)(F)F)cc2)o1` [Compound 4], the “Δ T m (TEAD1)” value in experiment [1] is given as “+++”. Moreover, the “Δ T m (TEAD2)” value in experiment [2] is reported as “++”. Moreover, the “Δ T m (TEAD3)” value in experiment [3] is “++”. Further, the “Δ T m (TEAD4)” value in experiment [4] is reported as “+”.
`CP(C)(=O)c1ccc(NC23CCC(CC2)CC3)c(-c2nccc(OC3COC3)n2)c1` [Compound 38]: the “Δ T m (TEAD1)” value in experiment [1] is reported as “+++”. Further, in experiment [2], the “Δ T m (TEAD2)” value is “+”. Also, the “Δ T m (TEAD3)” value in experiment [3] was “+”. Also, in experiment [4], the “Δ T m (TEAD4)” value is recorded as “+++”.
Turning to `COCc1cccn(-c2cc(P(C)(C)=O)ccc2Nc2ccc(C(F)(F)F)cc2)c1=O` [Compound 48], the “Δ T m (TEAD1)” value in experiment [1] is reported as “++”. The “Δ T m (TEAD2)” value in experiment [2] was “+”. Further, the “Δ T m (TEAD3)” value in experiment [3] was “+”. For the same compound, the “Δ T m (TEAD4)” value in experiment [4] is listed as “+”.
With `CP(C)(=O)c1ccc(NCc2cc(F)cc(F)c2)c(-c2ncccn2)c1` [Compound 44], the “Δ T m (TEAD1)” value in experiment [1] is listed as “++”. Also, in experiment [2], the “Δ T m (TEAD2)” value is “++”. For the same compound, the “Δ T m (TEAD3)” value in experiment [3] is given as “+”. The “Δ T m (TEAD4)” value in experiment [4] was “++”.
Turning to `COCc1cccn(-c2cc(P(C)(C)=O)ccc2NCc2ccc(C(F)(F)F)cc2)c1=O` [Compound 59], the “Δ T m (TEAD1)” value in experiment [1] was “++”. In addition, in experiment [2], the “Δ T m (TEAD2)” value was “+”. The “Δ T m (TEAD3)” value in experiment [3] is on record as “+”. For the same compound, the “Δ T m (TEAD4)” value in experiment [4] is listed as “+”.
With `CC1OCCC1S(=O)(=O)c1csc(-c2cc(P(C)(C)=O)ccc2Nc2ccc(C(F)(F)F)cc2)n1` (stereo not drawn) [Compound 23], the “Δ T m (TEAD1)” value in experiment [1] is reported as “++”. Besides, in experiment [2], the “Δ T m (TEAD2)” value is reported as “+”. Besides, the “Δ T m (TEAD3)” value in experiment [3] is “+”. Further, the “Δ T m (TEAD4)” value in experiment [4] is “+”.
As to `CP(C)(=O)c1ccc(Nc2ccc(C(F)(F)F)cc2)c(-c2nnn(Cc3ccccn3)n2)c1` [Compound 3], in experiment [1], the “Δ T m (TEAD1)” value is “+++”. Besides, the “Δ T m (TEAD2)” value in experiment [2] was “+”. In experiment [3], the “Δ T m (TEAD3)” value is “+”. Also, the “Δ T m (TEAD4)” value in experiment [4] was “++”.
As to `CP(C)(=O)c1ccc(NCc2ccc(C(F)(F)F)cc2)c(-c2cnn(C3COC3)c2)c1` [Compound 50], the “Δ T m (TEAD1)” value in experiment [1] was “++”. For the same compound, the “Δ T m (TEAD2)” value in experiment [2] is recorded as “++”. In experiment [3], the “Δ T m (TEAD3)” value is reported as “++”. Further, the “Δ T m (TEAD4)” value in experiment [4] is listed as “++”.
Take `Cc1nc(-c2cc(P(C)(C)=O)ccc2NCc2cccc(C(F)(F)F)c2)no1` [Compound 49]: in experiment [1], the “Δ T m (TEAD1)” value was “+++”. Besides, the “Δ T m (TEAD2)” value in experiment [2] is listed as “+”. For the same compound, the “Δ T m (TEAD3)” value in experiment [3] is “++”. Further, the “Δ T m (TEAD4)” value in experiment [4] is given as “++”.
As for `CP(C)(=O)c1ccc(Nc2ccc(C(F)(F)F)cc2)c(-c2nnc(NCCO)o2)c1` [Compound 12], in experiment [1], the “Δ T m (TEAD1)” value is on record as “++”. For the same compound, in experiment [2], the “Δ T m (TEAD2)” value is on record as “+”. For the same compound, the “Δ T m (TEAD3)” value in experiment [3] was “+”. The “Δ T m (TEAD4)” value in experiment [4] is on record as “+”.

(Values after US20260055126A1, “SMALL MOLECULE COMPOUNDS WITH PHOSPHORYLATED ARYL STRUCTURES AND USE THEREOF” (HANGZHOU PHECDAMED CO., LTD., priority 2022, published 2026).)
